Laboratory results published in patent US20010044151A1, “Ligands for modulating the expression of exogenous genes via an ecdysone receptor complex” (priority 1998, published 2001).

Assays:
[1] = target: CfEcR(CDEF)-GST and CfUSP-GST fusion proteins; assay: Competitive 3H-ponasterone A binding assay, bacterial GST fusion proteins; parameters: species or system Choristoneura fumiferana; conditions: bacterial CfEcR(CDEF)-GST/CfUSP-GST extracts, 3H-ponasterone A displacement
Description: Bacterial glutathion-S-transferase (GST) fusion proteins of the spruce budworm (Choristoneura fumiferana) EcR (CfEcR), containing CDEF domains only, and ultraspiracle protein (CfUSP) were also used in radioligand displacement assays. cDNA encoding the CDEF domains of CfEcR were constructed following PCR amplification using primers that contain BamH1 and EcoRI sites (Perera S C, M Sundaram, Krell P J, Retnakaran A, Dhadialla T S, S R Palli, 1999 Arch. Insect Biochem. Physiol. 41 In Press). The PCR produce was digested with BamHI and EcoRI and cloned into pGEX-3X vector obtained from Pharmacia Biotech. CfUSP coding region was amplified using primers that contain BamH1 and EcoRI sites and cloned into to pGEX-2T vector obtained from Pharmacia Biotech. E. coli transformed with each of the two vectors were grown and induced to produce the fusion proteins as detailed in the Pharmacia Biotech GST-technical bulletin.
The concentrations of competitors that inhibited 50% of tritiated ponasterone A binding (IC50) was determined by incubating Kc or Plodia nuclear extracts or extracts of bacteria producing CfEcR(CDEF)-GST and CfUSP-GST fusions proteins with ^3H-ponasterone A (66,000 dpm per reaction) in the presence of a range of concentrations (0.1 nM to 10 μM) of test compounds. In the case of binding reactions using bacterial fusion proteins, 20 or one μl extract of bacteria producing CfEcR(CDEF)-GST or CfUSP-GST fusion proteins, respectively, were included per binding reaction. The assay conditions and determination of total and non-specific binding was as described above. The volume of competitor in solvent, like that for 20E or solvent alone, was kept at 1% of total reaction volume by using a 100 fold concentrated stock solution (i.e. a 100 fold dilution of stock solutions). The remainder of the assay was as described above. Each reaction was carried out in duplicate per concentration per test compound. […]

Spodoptera exigua = assay: Translaminar movement into cotton leaves, mortality of neonate beet armyworm larvae; type: in vivo; conditions: versus CE-1
Method: A study was conducted to evaluate translaminar movement of two compounds into cotton leaves using neonate beet armyworm larvae, Spodoptera exigua, as the model system.
Two treatments were evaluated: emulsifiable concentrates of CE-1 and Ligand 3 (5% and 19%, respectively), at a concentration of 100 μg/ml to simulate spray tank concentrations. These treatments were then compared with plants treated with a chemical standard known to have excellent translaminar movement (emamectin benzoate, 0.16% EC [20 μg/ml], Merck & Co.) and with nontreated plants.
Four-week-old cotton, Gossypium hirsutum L. ev. Stoneville, plants were treated with each treatment by painting the top surface of a single replicate leaf/plant with a corresponding treatment. Plants were held in a controlled environment glasshouse maintained at 27° C. until needed. Residual effectiveness was evaluated by challenging treated and nontreated foliage with neonate beet armyworm larvae, Spodoptera exigua (Hubner), on 3 dates: 1, 7 and 14 days after treatment (DAT). On each sample date, the single treated leaf/plant was excised from each of five replicate plants per treatment. […] Mortality of larvae was recorded 4 days after infestation. […]
Percentage mortality data were transformed to the arcsine of the square-root and then analyzed by ANOVA using JMP (Ver. 3.2.1). […]

COc1cccc(C(=O)NN(C(=O)c2cc(C)cc(C)c2)C(C)(C)C)c1C [Ligand 3]
Bacterial CfECR log(1/IC50) [1]: 8.76 | Effectiveness at killing S. exigua larvae from translaminar movement (comparison in words) (Spodoptera exigua): significantly more effective than CE-1
